Laboratory results from patent US20160220569A1, “CDK4/6 Inhibitor Dosage Formulations For The Protection Of Hematopoietic Stem And Progenitor Cells During Chemotherapy” (G1 Therapeutics, Inc., priority 2015, published 2016).
Read-outs that look alike come from different tables or passages of the source.

Test: 14-day oral gavage toxicokinetic study in rats
Format: in vivo
Conditions: female, rat, plasma, po; for half-life: read-out: t½ (converted); for concentration at 0.5 h / concentration at 2 h / concentration at 4 h / concentration at 8 h / concentration at 12 h / concentration at 24 h / concentration at 1 h / concentration at […]: rats
Protocol: Plasma was obtained from blood samples collected from rats in a composite sampling scheme, with 3 samples collected per sex, per dose, at each target collection time, as illustrated in Table 21 to Table 25. Samples were collected from the vehicle control group on Day 1 and Day 14 at 3 hour after administration. […] Blood samples were collected in tubes containing K3EDTA as an anticoagulant and placed on ice until processed to plasma via centrifugation. Samples were stored frozen at −80° C. until shipment to the bioanalytical laboratory for analysis.
The following parameters were determined:
Cmax: Maximum observed plasma concentration (ng/mL).
A value of 0 ng/mL was assigned to all values below the lower limit of quantitation (BLQ, <10.0 ng/mL).
AUC(0-inf): Area under the plasma concentration vs. time curve extrapolated from 0 to infinity (ng*h/mL), calculated as AUC(0-t)+AUC(t-inf) where AUC(t-inf) is calculated as last measurable concentration (CLast) divided by ke, where ke is the elimination rate constant determined by linear regression of the last three analytically measured points on the log plasma concentration vs. time curve. The selection criteria of the data points for inclusion in the calculation of ke required that at least three data points representing the terminal phase (after Tmax) were regressed and that R2≧0.850 when rounded.
CL: Clearance (L/h/kg), calculated as the dose divided by AUC(0-t).
Vd: Volume of distribution (L/kg), calculated as dose divided by the product of ke and AUC(0-inf).
Vdss: Steady state volume of distribution (L/kg), calculated as clearance […] mean residence time, where mean residence time is calculated as the area under the first moment curve divided by AUC(0-t).
t½: Elimination half-life (h), calculated as ln(2)/ke, where ke is the elimination rate constant determined by linear regression. Half-life was defined as not determined if regression criteria (specified in AUC(0-inf) above) were not met.
Cmax/Dose: Normalized Cmax, calculated as Cmax divided by total dose.
AUC/Dose: Normalized AUC, calculated as AUC(0-t) divided by total dose.
ii. Statistical Analysis Mean and standard deviation (SD) were calculated in Watson. Values of BLQ were assigned a value of 0 ng/mL for mean calculations. Concentration values and derived TK parameters were reported to three significant figures.

[1] = 5 mg/kg, oral 5 mg/kg, Study Day 14, Female
[2] = 15 mg/kg, oral 15 mg/kg, Study Day 1, Female
[3] = 15 mg/kg, oral 15 mg/kg, Study Day 14, Female

CN1CCN(c2ccc(Nc3ncc4cc5n(c4n3)C3(CCCCC3)CNC5=O)nc2)CC1 [Compound 1, 2′-((5-(4-methylpiperazin-1-yl)pyridin-2-yl)amino)-7′,8′-dihydro-6′H-spiro[cyclohexane-1,9′-pyrazino[1′,2′:1,5]pyrrolo[2,3-d]pyrimidin]-6′-one]
Tmax [1]: 1 h | half-life [1]: 4.41 h | concentration at 0.5 h (15 mg/kg, Individual Compound 1 Plasma Concentration, daily oral 15 mg/kg, Day 1, Female, 0.5 h): 1050 ng/mL | concentration at 2 h (15 mg/kg, Individual Compound 1 Plasma Concentration, daily oral 15 mg/kg, Day 1, Female, 2 h): 1820 ng/mL | concentration at 4 h (15 mg/kg, Individual Compound 1 Plasma Concentration, daily oral 15 mg/kg, Day 1, Female, 4 h): 1750 ng/mL | concentration at 8 h (15 mg/kg, Individual Compound 1 Plasma Concentration, daily oral 15 mg/kg, Day 1, Female, 8 h): 1250 ng/mL | concentration at 12 h (15 mg/kg, Individual Compound 1 Plasma Concentration, daily oral 15 mg/kg, Day 1, Female, 12 h): 1010 ng/mL | concentration at 24 h (15 mg/kg, Individual Compound 1 Plasma Concentration, daily oral 15 mg/kg, Day 1, Female, 24 h): 63.9 ng/mL | concentration at 0.5 h (15 mg/kg, Individual Compound 1 Plasma Concentration, daily oral 15 mg/kg, Day 14, Female, 0.5 h): 908 ng/mL | concentration at 1 h (15 mg/kg, Individual Compound 1 Plasma Concentration, daily oral 15 mg/kg, Day 14, Female, 1 h): 1410 ng/mL | concentration at 4 h (15 mg/kg, Individual Compound 1 Plasma Concentration, daily oral 15 mg/kg, Day 14, Female, 4 h): 1580 ng/mL | concentration at 8 h (15 mg/kg, Individual Compound 1 Plasma Concentration, daily oral 15 mg/kg, Day 14, Female, 8 h): 996 ng/mL | concentration at 12 h (15 mg/kg, Individual Compound 1 Plasma Concentration, daily oral 15 mg/kg, Day 14, Female, 12 h): 1060 ng/mL | concentration at 24 h (15 mg/kg, Individual Compound 1 Plasma Concentration, daily oral 15 mg/kg, Day 14, Female, 24 h): 106 ng/mL | concentration at […] (15 mg/kg, Individual Compound 1 Plasma Concentration, daily oral 15 mg/kg, Day 14, Female, […]): 117 ng/mL | concentration at 0.5 h (15 mg/kg, Mean Compound 1 Plasma Concentration, oral 15 mg/kg, Day 1, 0.5 h, Female): 1180 ng/mL | concentration at 1 h (15 mg/kg, Mean Compound 1 Plasma Concentration, oral 15 mg/kg, Day 1, 1 h, Female): 1530 ng/mL | concentration at 2 h (15 mg/kg, Mean Compound 1 Plasma Concentration, oral 15 mg/kg, Day 1, 2 h, Female): 1910 ng/mL | concentration at 4 h (15 mg/kg, Mean Compound 1 Plasma Concentration, oral 15 mg/kg, Day 1, 4 h, Female): 1690 ng/mL | concentration at 8 h (15 mg/kg, Mean Compound 1 Plasma Concentration, oral 15 mg/kg, Day 1, 8 h, Female): 1440 ng/mL | concentration at 12 h (15 mg/kg, Mean Compound 1 Plasma Concentration, oral 15 mg/kg, Day 1, 12 h, Female): 916 ng/mL | concentration at 24 h (15 mg/kg, Mean Compound 1 Plasma Concentration, oral 15 mg/kg, Day 1, 24 h, Female): 84.5 ng/mL | concentration at […] (15 mg/kg, Mean Compound 1 Plasma Concentration, oral 15 mg/kg, Day 1, […], Female): 109 ng/mL | concentration at 0.5 h (15 mg/kg, Mean Compound 1 Plasma Concentration, oral 15 mg/kg, Day 14, 0.5 h, Female): 1170 ng/mL | concentration at 1 h (15 mg/kg, Mean Compound 1 Plasma Concentration, oral 15 mg/kg, Day 14, 1 h, Female): 1450 ng/mL | concentration at 2 h (15 mg/kg, Mean Compound 1 Plasma Concentration, oral 15 mg/kg, Day 14, 2 h, Female): 1490 ng/mL | concentration at 4 h (15 mg/kg, Mean Compound 1 Plasma Concentration, oral 15 mg/kg, Day 14, 4 h, Female): 1570 ng/mL | concentration at 8 h (15 mg/kg, Mean Compound 1 Plasma Concentration, oral 15 mg/kg, Day 14, 8 h, Female): 979 ng/mL | concentration at 12 h (15 mg/kg, Mean Compound 1 Plasma Concentration, oral 15 mg/kg, Day 14, 12 h, Female): 805 ng/mL | concentration at 24 h (15 mg/kg, Mean Compound 1 Plasma Concentration, oral 15 mg/kg, Day 14, 24 h, Female): 130 ng/mL | concentration at […] (15 mg/kg, Mean Compound 1 Plasma Concentration, oral 15 mg/kg, Day 14, […], Female): 131 ng/mL | AUC(0-inf) [2]: 23700 ng·h/mL | AUC(0-t) [2]: 23200 ng·h/mL | Cmax [2]: 1910 ng/mL | Tmax [2]: 2 h | AUC(0-inf) [3]: 20800 ng·h/mL | AUC(0-t) [3]: 19800 ng·h/mL | Cmax [3]: 1570 ng/mL | Tmax [3]: 4 h | half-life [3]: 5.24 h | concentration at 0.5 h (30 mg/kg, Individual Compound 1 Plasma Concentration, daily oral 30 mg/kg, Day 1, Female, 0.5 h): 2030 ng/mL | concentration at 1 h (30 mg/kg, Individual Compound 1 Plasma Concentration, daily oral 30 mg/kg, Day 1, Female, 1 h): 2500 ng/mL | concentration at 2 h (30 mg/kg, Individual Compound 1 Plasma Concentration, daily oral 30 mg/kg, Day 1, Female, 2 h): 3440 ng/mL | concentration at 4 h (30 mg/kg, Individual Compound 1 Plasma Concentration, daily oral 30 mg/kg, Day 1, Female, 4 h): 2570 ng/mL | concentration at 8 h (30 mg/kg, Individual Compound 1 Plasma Concentration, daily oral 30 mg/kg, Day 1, Female, 8 h): 2480 ng/mL | concentration at 12 h (30 mg/kg, Individual Compound 1 Plasma Concentration, daily oral 30 mg/kg, Day 1, Female, 12 h): 2000 ng/mL | concentration at 24 h (30 mg/kg, Individual Compound 1 Plasma Concentration, daily oral 30 mg/kg, Day 1, Female, 24 h): 310 ng/mL | concentration at […] (30 mg/kg, Individual Compound 1 Plasma Concentration, daily oral 30 mg/kg, Day 1, Female, […]): 114 ng/mL | concentration at 0.5 h (30 mg/kg, Individual Compound 1 Plasma Concentration, daily oral 30 mg/kg, Day 14, Female, 0.5 h): 1450 ng/mL | concentration at 1 h (30 mg/kg, Individual Compound 1 Plasma Concentration, daily oral 30 mg/kg, Day 14, Female, 1 h): 2740 ng/mL | concentration at 2 h (30 mg/kg, Individual Compound 1 Plasma Concentration, daily oral 30 mg/kg, Day 14, Female, 2 h): 2170 ng/mL | concentration at 4 h (30 mg/kg, Individual Compound 1 Plasma Concentration, daily oral 30 mg/kg, Day 14, Female, 4 h): 2700 ng/mL | concentration at 8 h (30 mg/kg, Individual Compound 1 Plasma Concentration, daily oral 30 mg/kg, Day 14, Female, 8 h): 1970 ng/mL | concentration at 12 h (30 mg/kg, Individual Compound 1 Plasma Concentration, daily oral 30 mg/kg, Day 14, Female, 12 h): 2290 ng/mL | concentration at 24 h (30 mg/kg, Individual Compound 1 Plasma Concentration, daily oral 30 mg/kg, Day 14, Female, 24 h): 280 ng/mL
